Results reported in PubChem BioAssay (NCI).
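Compound exposure: 48 hours, 5 concentrations, 96-well plates. At the TGI there is no net growth.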

What was measured:
Experiment in all cases: NCI anticancer screen, dose series, 48 h
786-0 renal = system: 786-0 renal
EKVX NSCLC = system: EKVX NSCLC
HOP-62 NSCLC = system: HOP-62 NSCLC
LOX IMVI melanoma = system: LOX IMVI melanoma
NCI-H226 lung = system: NCI-H226 lung
NCI-H522 lung = system: NCI-H522 lung
SNB-75 CNS = system: SNB-75 CNS
UACC-62 melanoma = system: UACC-62 melanoma
SK-MEL-5 melanoma = system: SK-MEL-5 melanoma

SMILES	TGI (786-0 renal) [µM]	TGI (EKVX NSCLC) [µM]	TGI (HOP-62 NSCLC) [µM]	TGI (LOX IMVI melanoma) [µM]	TGI (NCI-H226 lung) [µM]	TGI (NCI-H522 lung) [µM]	TGI (SNB-75 CNS) [µM]	TGI (UACC-62 melanoma) [µM]	TGI (SK-MEL-5 melanoma) [µM]
COC(=O)C1C(C(=O)OC)C2C(=O)C3C(C(=O)OC)C(C(=O)OC)C3C(=O)C12 (stereo not given)	> 100	> 100	> 100	> 100	> 100	> 100	–	–	–
COc1cc([C@@H]2c3cc4c(cc3[C@@H](NC(=O)c3ccc(C#N)cc3)C3COC(=O)[C@@H]32)OCO4)cc(OC)c1O (stereo not given in full)	16	5.73	0.673	2.34	0.508	2.39	5.49	2.19	–
COc1cc(Nc2cnc3ccc(C(F)(F)F)cc3n2)cc(OC)c1OC	> 100	> 100	> 100	23.2	> 100	–	–	–	–
O=C1NC(=O)c2c1n(Cc1ccccc1)c(=O)n2Cc1ccccc1	> 100	> 100	> 100	> 100	> 100	> 100	> 100	> 100	> 100
Cc1ccc2c(c1)CN1c3ccc(C)cc3CN2C1c1ccccc1O	> 100	54.9	> 100	> 100	> 100	> 100	9.08	> 100	30.5
NNC(=O)C(=O)N/N=C1/CCCC1C(=O)CCC(=O)Nc1ccc(Cl)cc1 (stereo not given)	> 100	> 100	> 100	–	> 100	> 100	> 100	24	> 100
OCc1cc2c(cn1)[nH]c1ccc(NCc3ccccc3)cc12	58.4	> 100	> 100	> 100	54.4	52	69.7	42.7	25.6
CC1=N/C(=C\c2ccc(/C=C3/N=C(C)OC3=O)cc2)C(=O)O1	> 100	–	> 100	> 100	–	> 100	> 100	> 100	> 100
O=c1/c(=C/c2ccccc2[N+](=O)[O-])sc2nnc(-c3cccnc3)n12	> 100	> 100	> 100	> 100	> 100	–	> 100	> 100	> 100
CCc1ccccc1NC(=O)c1cccc([N+](=O)[O-])c1O	> 100	> 100	58	55.6	88.7	62.6	71.8	> 100	33.9
Cc1ccc(S(=O)(=O)OCC/C(=C\[Si](C)(C)C)c2ccccc2)cc1	> 100	> 100	> 100	> 100	> 100	> 100	> 100	> 100	> 100
O=C(NC12CC3CCC1CC(C3)C2)[C@@H]1CCCN1C(=O)OCc1ccccc1 (stereo not given in full)	> 100	> 100	> 100	> 100	> 100	> 100	97.2	> 100	–
O=[N+]([O-])c1cccc(C2=NN(c3ccccc3)C3c4cc(Br)ccc4OCC23)c1 (stereo not given)	> 100	> 100	> 100	> 100	–	> 100	> 100	–	> 100
CCOC(=O)c1nc(C)oc1C(F)(F)F	> 100	> 100	> 100	> 100	> 100	> 100	> 100	> 100	–
O=C1[C@@H]2C(c3c(Cl)cccc3Cl)=NO[C@@H]2C(=O)N1c1ccc(Cc2ccc(N3C(=O)[C@H]4C(c5c(Cl)cccc5Cl)=NO[C@H]4C3=O)cc2)cc1	> 100	> 100	> 100	> 100	> 100	–	> 100	> 100	> 100
CCc1cccc(C)c1NC(=O)CCc1nc(=S)[nH][nH]1	> 100	> 100	> 100	> 100	> 100	> 100	–	> 100	> 100
O=C(NC1C(=O)NNC1c1cccc([N+](=O)[O-])c1)c1ccccc1 (stereo not given)	> 100	> 100	> 100	> 100	> 100	–	> 100	> 100	> 100
CCCCCCCC(=O)OCC(COC(=O)C(C)(C)C)OC(=O)Cc1ccccc1 (stereo not given)	> 100	–	> 100	> 100	> 100	–	–	> 100	> 100
O=[N+]([O-])c1ccccc1C1SCc2nc3ccccc3n21 (stereo not given)	> 100	> 100	> 100	> 100	–	> 100	–	> 100	48.3
Cc1nc2ccccc2nc1CC(=O)C(=O)Nc1ccc(Cl)cc1Cl	> 100	> 100	> 100	> 100	–	> 100	> 100	> 100	> 100
